According to article PMC11062899, “De novo development of small cyclic peptides that are orally bioavailable” (Nature Chemical Biology, 2023):
“And” between values parts separate entries of the source, which are not always exact repeats. Equal entries are not always repeated. Where two headings read alike, the source gives them in different places.

Columns and labels:
human α-thrombin = human α-thrombin (Homo sapiens, UniProt P00734); assay: Protease inhibition, Ki for human α-thrombin (fluorogenic substrate Z-Gly-Gly-Arg-AMC); type: biochemical; conditions: for slope normalized to DMSO, human alpha thrombin inhibition / Human alpha thrombin inhibition, slope normalized to DMSO: replicates R1-R3
Summary of the method: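 Ki derived through Cheng–Prusoff from IC50s (four-parameter logistic fit) against activity of peptide-free controls. Product fluorescence was read every 3 min over 30 min at 25 °C, substrate Z-Gly-Gly-Arg-AMC at 50 μM. Enzyme was 2 nM human or 3 nM rat α-thrombin, pH 7.4 buffer.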

in vivo = conditions: rat
Protocol: Male Wistar Han rats (250–350 g) obtained at an age of 9–10 weeks from Charles River Laboratories were used for the studies and kept in housing groups of two or three. Experiments were performed at the age of 10–11 weeks. Intravenous (i.v.) administrations were carried out using tail vein injections. Peptides were dissolved in pure DMSO and diluted with 5% Cremophor EL in water (5% DMSO final) at a concentration of 0.5 mg ml^−1. I.v. administration was carried out at a dose of 1 mg kg^−1 body weight via the left lateral tail vein of rats (n = 3) using an Insyte-W 24 G × 0.75 in. (0.7 mm × 19 mm) temporary peripheral venous catheter (BD Biosciences, 381312). Before injecting the peptide solution, a correct placement of the catheter was confirmed by an apparent reflux of blood through the catheter. Orally (p.o.) administrated peptides were dissolved in DMSO and diluted with 10% Cremophor EL in water (5% DMSO final) at a concentration of 1 mg ml^−1 and administrated by oral gavage to rats (n = 3) at a dose of 10 mg kg^−1. Rats used for oral administration were fasted overnight for 14 h and provided access to food again 2 h after administration, whereas access to water was not restricted throughout the whole experimental procedure. Volumes of 100 μl of blood samples were collected via the right lateral tail vein at different timepoints after i.v. or p.o. administration into heparinized tubes (Sarstedt, 20.1282); the samples were stored on ice for up to 4 h; and plasma was obtained by centrifugation at 2,000g for 5 min at 4 °C. A volume of 40 μl of plasma was added to 120 μl of an acetonitrile:water (9:1) solution containing an internal standard (5 μg ml^−1). Samples were vortexed for 10 s and sonicated for 10 min, and precipitated plasma proteins were pelleted by centrifugation at 16,000g for 15 min at 4 °C. Volumes of 120 μl of supernatant were transferred to a new tube, and solvent was evaporated in a rotary vacuum concentrator (RVC 2–33 CDplus IR, Christ) for 2 h at 40 °C. Dried residues were dissolved in 20 μl of a water:acetonitrile (7:3) (v/v) solution, centrifuged at 14,000g for 5 min and analyzed by LC–MS. Peptides were quantified by extracting ion chromatograms corresponding to their respective mass, integrating the area under the peptide peak and calculating the concentrations by normalization to a calibration curve. Calibration curves were prepared by analyzing spiked samples of blood or plasma with known concentrations of peptide. The absolute oral bioavailability was calculated using equation (6).6 F=AUCp.o./AUCi.v.×Dosei.v./Dosep.o.×100 where AUCp.o. and AUCi.v. are calculated from a plasma concentration versus time curve using the linear trapezoidal rule, and Dosei.v. and Dosep.o. are the intravenously or orally administrated amount of peptide in mg kg^−1.

[1] = male, Wistar Han, iv, 1 mg/kg, Plasma Concentration (uM)

slope normalized to DMSO, human alpha thrombin inhibition (human α-thrombin; peptide 1.00E+02 uM): 10.6 and 8.4 (2×) | slope normalized to DMSO, human alpha thrombin inhibition (human α-thrombin; peptide 1.19E-05 uM): 106.5 and 81.0 and 107.9 | slope normalized to DMSO, human alpha thrombin inhibition (human α-thrombin; peptide 1.22E-02 uM): 62.0 and 85.6 and 70.0 | slope normalized to DMSO, human alpha thrombin inhibition (human α-thrombin; peptide 1.25E+01 uM): 12.3 and 9.9 and 11.8 | slope normalized to DMSO, human alpha thrombin inhibition (human α-thrombin; peptide 1.53E-03 uM): 95.1 and 99.7 and 102.7 | slope normalized to DMSO, human alpha thrombin inhibition (human α-thrombin; peptide 1.56E+00 uM): 18.3 and 16.9 and 22.5 | slope normalized to DMSO, human alpha thrombin inhibition (human α-thrombin; peptide 1.91E-04 uM): 119.9 and 101.0 and 100.8 | slope normalized to DMSO, human alpha thrombin inhibition (human α-thrombin; peptide 1.95E-01 uM): 42.7 and 40.6 and 41.3 | slope normalized to DMSO, human alpha thrombin inhibition (human α-thrombin; peptide 2.38E-05 uM): 106.9 and 97.9 and 102.5 | slope normalized to DMSO, human alpha thrombin inhibition (human α-thrombin; peptide 2.44E-02 uM): 46.0 and 65.3 and 70.3 | slope normalized to DMSO, human alpha thrombin inhibition (human α-thrombin; peptide 2.50E+01 uM): 11.7 and 11.0 and 8.9 | slope normalized to DMSO, human alpha thrombin inhibition (human α-thrombin; peptide 3.05E-03 uM): 106.1 and 101.5 and 67.8 | slope normalized to DMSO, human alpha thrombin inhibition (human α-thrombin; peptide 3.12E+00 uM): 3.8 and 18.2 and 18.8 | slope normalized to DMSO, human alpha thrombin inhibition (human α-thrombin; peptide 3.81E-04 uM): 102.1 and 100.1 and 93.5 | slope normalized to DMSO, human alpha thrombin inhibition (human α-thrombin; peptide 3.91E-01 uM): 14.9 and 22.0 and 10.5 | slope normalized to DMSO, human alpha thrombin inhibition (human α-thrombin; peptide 4.77E-05 uM): 101.9 and 97.6 and 92.9 | slope normalized to DMSO, human alpha thrombin inhibition (human α-thrombin; peptide 4.88E-02 uM): 73.8 and 55.8 and 60.0 | slope normalized to DMSO, human alpha thrombin inhibition (human α-thrombin; peptide 5.00E+01 uM): 9.3 and 5.3 | slope normalized to DMSO, human alpha thrombin inhibition (human α-thrombin; peptide 6.10E-03 uM): 98.4 and 93.3 and 99.0 | slope normalized to DMSO, human alpha thrombin inhibition (human α-thrombin; peptide 6.25E+00 uM): 13.3 and 15.1 and 10.3 | slope normalized to DMSO, human alpha thrombin inhibition (human α-thrombin; peptide 7.63E-04 uM): 80.8 and 91.3 and 104.9 | slope normalized to DMSO, human alpha thrombin inhibition (human α-thrombin; peptide 7.81E-01 uM): 21.2 and 22.0 (2×) | slope normalized to DMSO, human alpha thrombin inhibition (human α-thrombin; peptide 9.54E-05 uM): 101.3 and 101.9 and 107.5 | slope normalized to DMSO, human alpha thrombin inhibition (human α-thrombin; peptide 9.77E-02 uM): 65.8 and 56.8 and 59.4 | Human alpha thrombin inhibition, slope normalized to DMSO (human α-thrombin; peptide concentration 1.00E+02 uM): 10.6 and 8.4 (2×) | Human alpha thrombin inhibition, slope normalized to DMSO (human α-thrombin; peptide concentration 1.19E-05 uM): 106.5 and 81.0 and 107.9 | Human alpha thrombin inhibition, slope normalized to DMSO (human α-thrombin; peptide concentration 1.22E-02 uM): 62.0 and 85.6 and 70.0 | Human alpha thrombin inhibition, slope normalized to DMSO (human α-thrombin; peptide concentration 1.25E+01 uM): 12.3 and 9.9 and 11.8 | Human alpha thrombin inhibition, slope normalized to DMSO (human α-thrombin; peptide concentration 1.53E-03 uM): 95.1 and 99.7 and 102.7 | Human alpha thrombin inhibition, slope normalized to DMSO (human α-thrombin; peptide concentration 1.56E+00 uM): 18.3 and 16.9 and 22.5 | Human alpha thrombin inhibition, slope normalized to DMSO (human α-thrombin; peptide concentration 1.91E-04 uM): 119.9 and 101.0 and 100.8 | Human alpha thrombin inhibition, slope normalized to DMSO (human α-thrombin; peptide concentration 1.95E-01 uM): 42.7 and 40.6 and 41.3 | Human alpha thrombin inhibition, slope normalized to DMSO (human α-thrombin; peptide concentration 2.38E-05 uM): 106.9 and 97.9 and 102.5 | Human alpha thrombin inhibition, slope normalized to DMSO (human α-thrombin; peptide concentration 2.44E-02 uM): 46.0 and 65.3 and 70.3 | Human alpha thrombin inhibition, slope normalized to DMSO (human α-thrombin; peptide concentration 2.50E+01 uM): 11.7 and 11.0 and 8.9 | Human alpha thrombin inhibition, slope normalized to DMSO (human α-thrombin; peptide concentration 3.05E-03 uM): 106.1 and 101.5 and 67.8 | Human alpha thrombin inhibition, slope normalized to DMSO (human α-thrombin; peptide concentration 3.12E+00 uM): 3.8 and 18.2 and 18.8 | Human alpha thrombin inhibition, slope normalized to DMSO (human α-thrombin; peptide concentration 3.81E-04 uM): 102.1 and 100.1 and 93.5 | Human alpha thrombin inhibition, slope normalized to DMSO (human α-thrombin; peptide concentration 3.91E-01 uM): 14.9 and 22.0 and 10.5 | Human alpha thrombin inhibition, slope normalized to DMSO (human α-thrombin; peptide concentration 4.77E-05 uM): 101.9 and 97.6 and 92.9 | Human alpha thrombin inhibition, slope normalized to DMSO (human α-thrombin; peptide concentration 4.88E-02 uM): 73.8 and 55.8 and 60.0 | Human alpha thrombin inhibition, slope normalized to DMSO (human α-thrombin; peptide concentration 5.00E+01 uM): 9.3 and 5.3 | Human alpha thrombin inhibition, slope normalized to DMSO (human α-thrombin; peptide concentration 6.10E-03 uM): 98.4 and 93.3 and 99.0 | Human alpha thrombin inhibition, slope normalized to DMSO (human α-thrombin; peptide concentration 6.25E+00 uM): 13.3 and 15.1 and 10.3 | Human alpha thrombin inhibition, slope normalized to DMSO (human α-thrombin; peptide concentration 7.63E-04 uM): 80.8 and 91.3 and 104.9 | Human alpha thrombin inhibition, slope normalized to DMSO (human α-thrombin; peptide concentration 7.81E-01 uM): 21.2 and 22.0 (2×) | Human alpha thrombin inhibition, slope normalized to DMSO (human α-thrombin; peptide concentration 9.54E-05 uM): 101.3 and 101.9 and 107.5 | Human alpha thrombin inhibition, slope normalized to DMSO (human α-thrombin; peptide concentration 9.77E-02 uM): 65.8 and 56.8 and 59.4 | Ki (human α-thrombin; purified peptide, mean and s.d. of three measurements, read-out: Ki human α-thrombin): 50 ± 6 nM | IC50 (human α-thrombin; single replicates R1-R3, read-out: Human alpha thrombin inhibition, IC50): 56.4 nM and 74.7 nM and 63.5 nM | Ki (human α-thrombin; single replicates R1-R3, read-out: Human alpha thrombin inhibition, Ki): 43.5 nM and 57.6 nM and 48.9 nM | level at time molar at 0.08 h (in vivo; [1]): 3.19 µM | level at time molar at 0.25 h (in vivo; [1]): 1.63 µM | level at time molar at 2 h (in vivo; [1]): 0.29 µM | Tmax (in vivo; male, Wistar Han, po): 30 min | bioavailability (in vivo; po): 4.5 ± 2.5% | Cmax (in vivo; po, 10 mg/kg): 183 ± 96 nM
Structure (SMILES): O=C1C[C@H]2CCCN2C(=O)[C@H](Cc2ccccc2)NC(=O)[C@@H](NC(=O)c2ccc(Cl)s2)CCC=CCCCCN1 [peptide 43]
